Data set [1] has as its system primary human hepatocytes (PHH). Also noted: method as in PMID 35594709. The following applies: PHHs; cited from earlier work.
For data set [2] the test system is unchanged. Also noted: method as in PMID 35594709. The following applies: 100 µM; cited from earlier work.
Data set [3] concerns human airway Calu-3 cells. To be noted: cited from earlier work.
Data set [4] relates to primary human hepatocytes (PHH). As to the kind of experiment: DCFH-DA intracellular ROS assay in primary human hepatocytes. The data set is classed as cell-based. The following applies: 50 µM and 100 µM, 24 h. As to the method: PHHs were purchased from Primacyt Cell Culture Technology GmbH (Schwerin, Germany). Hepatocytes were thawed using hepatocyte recovery medium (Primacyt, Schwerin, Germany) and cells were centrifuged (10 min, 100× g, 20 °C) to remove supernatants. Cells were incubated with 5% FBS-containing plating medium for 6 h, then with FBS-free maintenance medium at 37 °C with 5% CO2 (both media were obtained from Primacyt, Schwerin, Germany) on Matrigel-coated membrane inserts (Costar Transwell-COL PTFE permeable supports, 6.5 mm inserts, 0.4 µm pore size, 24-well plate, Corning Incorporated, Kennebunk, ME, USA) for the CCK-8 and Amplex Red procedures. Maintenance medium without FBS was replaced every 24 h and the cells were incubated.
The ability of inhibitors MI-1851 and MI-2415 to induce oxidative stress (ROS) within IPEC-J2 as well as of compound MI-2415 within PHHs was investigated with 2,7-dichloro-dihydro-fluorescein diacetate (DCFH2-DA). DCFH2-DA is a non-fluorescent compound that can passively diffuse across cell membranes due to its lipophilic nature. […] A Victor X2 2030 (Perkin Elmer, Waltham, MA, USA) was used to determine the fluorescence values of the samples (excitation wavelength: 485 nm, emission wavelength: 535 nm), which are directly proportional to the ROS generation.

In data set [5] the target is CYP3A4 (Homo sapiens, UniProt P08684). Put plainly: cell-based P450-Glo CYP3A4 activity assay in PHHs. It is filed as in vitro ADME. Also noted: human hepatic microsomes (Gibco, Biocenter, Szeged, Hungary); tissue Gibco (Biocenter, Szeged, Hungary); host or cells: human liver microsomes. To be noted: 100 µM, 24 h. On the procedure: To investigate the effects of inhibitor MI-2415 on CYP3A4 activities, a P450-Glo CYP450 assay (Promega, Madison, WI, USA) was used. […] This luminescent method involves adding a cell-permeable Luciferin-IPA at 3 µM, which was used in 300 µL phenol-red free Williams’ Medium E in each well in the CYP3A4 assay with an incubation time of 1 h. The luminescence activity of the product in the presence of the luciferin detection reagent was proportional to the CYP activity. For the microsomal CYP3A4 assay of inhibitors MI-1851 and MI-2415 at 25, 50, and 100 µM (n = 3), BioVision CYP assays (BioVision, Inc., Kampenhout, Belgium) were used according to the manufacturer’s instructions. The protein content of human hepatic microsomes (Gibco, Biocenter, Szeged, Hungary) was determined by the bicinchoninic acid protein assay kit (Pierce BCA kit, Thermo Fisher Scientific, Waltham, MA, USA) and a 100 µg/well protein was used in each study. […] A Victor X2 2030 fluorescence spectrometer (Perkin Elmer, Waltham, MA, USA) was used to detect the fluorescence intensities of the microsomal CYP3A4 function at wavelengths of λex/em = 535/587 nm and it was also applied to detect the luminescence signals of the cell-based CYP3A4 activity assay.

The structures appear in SMILES notation.

Sequence of CYP3A4 (P08684 whole entry): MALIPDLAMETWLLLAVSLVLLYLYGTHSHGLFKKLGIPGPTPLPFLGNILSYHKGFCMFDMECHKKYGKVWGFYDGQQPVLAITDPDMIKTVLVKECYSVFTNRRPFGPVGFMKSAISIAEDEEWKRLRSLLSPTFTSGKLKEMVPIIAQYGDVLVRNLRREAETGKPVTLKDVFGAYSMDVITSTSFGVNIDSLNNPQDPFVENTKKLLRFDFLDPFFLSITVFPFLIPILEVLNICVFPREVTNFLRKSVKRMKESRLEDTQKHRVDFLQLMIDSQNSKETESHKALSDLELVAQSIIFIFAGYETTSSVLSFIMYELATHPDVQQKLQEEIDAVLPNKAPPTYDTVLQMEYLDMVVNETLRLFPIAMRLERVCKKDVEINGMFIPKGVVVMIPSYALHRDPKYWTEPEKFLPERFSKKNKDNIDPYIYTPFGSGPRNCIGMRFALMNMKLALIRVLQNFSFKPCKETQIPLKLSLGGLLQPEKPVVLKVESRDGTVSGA

As for `CC(C)(C)[C@H](NC(=O)[C@H](CCONC(=N)N)NC(=O)Cc1ccc(CNC(=N)N)cc1)C(=O)N[C@@H](CCONC(=N)N)C(=O)NCc1ccc(C(=N)N)cc1` [MI-1851], the figures for the non-cytotoxic concentration entry in data set [1] and in data set [3] were “up to 100 µM” and “up to 50 µM”, respectively. The “extracellular hydrogen peroxide production in PHHs” value in data set [2] is given as “lacking any significant effect”.

As to `CC(C)(C)[C@H](NC(=O)[C@H](CCONC(=N)N)NC(=O)Cc1ccc(CNC(=N)N)cc1)C(=O)N[C@@H](CCONC(=N)N)C(=O)NCc1ccc2c(c1)CN=C2N` [MI-2415], the “intracellular ROS formation in PHHs” value in data set [4] was “did not cause a redox imbalance”. Besides, the “CYP3A4 activity in PHHs” value in data set [5] is given as “significantly reduced”.

The values are drawn from publication PMC11444200, “In Vitro Evaluation of Antipseudomonal Activity and Safety Profile of Peptidomimetic Furin Inhibitors” (Biomedicines, 2024).
